PubChem BioAssay AID179 (DTP/NCI, 2004)
The source made the active and inactive calls.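 How the source made its calls: active means compounds giving half or more protection of infected cells from virus-caused growth loss, again on retest; inactive means the rest.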

Tested on: CEM cells HIV-1 protection, formazan growth assay
Assay: NCI AIDS Antiviral Assay
Conditions: for IC50: measured here: growth of uninfected CEM cells
Procedure, shortened: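 Soluble formazan readout of cell growth; CEM cells ± HIV-1; 5 drug concs. ≥50% protection → retest; ≥50% again = moderately active; reproducible 100% = confirmed active.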

Compound	outcome	EC50	IC50
CC(CCC/C=C/CCCN(C)C(=N)N)CC(C)C1OC(=O)C(C)C(O)/C=C/C(C)C(O)C(C)C(O)C(C)C(O)CCCC(O)CC2(O)OC(CC(OC(=O)CC(=O)O)CC(O)CC(O)C(C)C(O)/C=C/C=C/C1C)CC(O)C2O (configuration not stated)	inactive		
NC1=Nc2ccccc2N(O)N1		> 158 µM	> 158 µM
O=C(NCCC[P+](c1ccccc1)(c1ccccc1)c1ccccc1)OCc1ccccc1		> 200 µM	1.58 µM
Cc1cn(CCCCCOC(=O)NC(CCCN=C(N)N)C(=O)O)c(=O)[nH]c1=O (configuration not stated)		> 200 µM	18.2 µM
COc1ccc(/C=N/Nc2nnc3c4ccccc4n(C)c3n2)cc1		> 200 µM	> 200 µM
COc1cccc(-c2[nH]c3cc4c(cc3c(=O)c2C(=O)O)OCO4)c1		> 200 µM	13.8 µM
CCC12OC(=O)C34CC(C(=O)N(CCc5c3[nH]c3ccccc53)C41)C2I (configuration not stated)	inactive		
N#Cc1cccc(Nc2ccccc2SSc2ccccc2Nc2cccc(C#N)c2)c1		> 58.9 µM	4.79 µM
O=c1nc2c(c(-c3cccc(Cl)c3)[nH]1)COC/C2=C\c1cccc(Cl)c1	inactive		
CC(=O)[O-].[Mn+3].[O-]c1ccc(Cl)cc1C=NCCN=Cc1cc(Cl)ccc1[O-]		> 240 µM	12 µM
O=C1NC(=O)/C(=C\c2cccc([N+](=O)[O-])c2)N1		> 200 µM	158 µM
COc1ccc(C[C@@H]2NC[C@@H](O)[C@@H]2OC(C)=O)cc1		> 4.17 µM	0.017 µM
C/C(=N/NC(=O)C[n+]1ccccc1)C(CN(CC(C)C)CC(C)C)C(=O)Nc1ccc(C)cc1C (configuration not stated)		> 14.1 µM	> 14.1 µM
COC(=O)/C=C/COCC1C2CCC(=O)C21 (configuration not stated)		> 151 µM	> 151 µM
N#Cc1cc2c(n(C3OC(CO)C(O)C(O)C3O)c1=S)CCC2 (configuration not stated)		> 200 µM	> 200 µM
S=c1ncc(-c2cncc(-c3cnc(=S)[nH]c3)n2)c[nH]1		> 200 µM	> 200 µM
Cc1ccc(NC(=O)CC2Sc3ccccc3NC2=O)cc1C (configuration not stated)		> 6.17 µM	> 6.17 µM
O=C1c2c(O)ccc(O)c2C(=O)c2c(NCCCCCO)ccc(NCCCCCO)c21	inactive		
CC(=O)Oc1cc2oc(=O)cc(C)c2cc1OC(C)=O	inactive		
O=c1c2ccccc2nc(-c2ccccc2)n1NC(=S)Nc1ccccc1		> 135 µM	112 µM
O=C(CC1(CC(=O)NCc2ccccc2)OCCO1)NCc1ccccc1	inactive		
CC1=C(C(=O)Nc2cc(=O)n(C)c(=O)n2C)C(c2cccc([N+](=O)[O-])c2)C(C(=O)Nc2cc(=O)n(C)c(=O)n2C)=C(C)N1		> 31.6 µM	> 31.6 µM
CCN(c1cccc(NC(=S)Nc2ccccc2N(CC)c2cc(-c3ccccc3)no2)c1)c1cc(-c2ccccc2)no1		> 200 µM	> 200 µM

Compound	outcome	EC50	IC50
COP(=O)(OC)C(=O)c1ccccc1		> 1150 µM	> 1150 µM
COC(=O)[C@H]1C=C[C@@H](C)n2c(=O)c3cc4ccccc4cc3c(=O)n21		> 21.4 µM	> 21.4 µM
CC[P+]1(c2ccccc2)[C@@H](C)CC[C@@H]1C		> 200 µM	91.2 µM
CCC(=S)N(C)O		> 20.9 µM	0.174 µM
CCCSCC(P(=O)(O)O)P(=O)(O)O	inactive		
N#Cc1ccc(CSC2=C(c3ccc(Cl)cc3)S/C(=C3\SC(SCc4ccc(C#N)cc4)=C(c4ccc(Cl)cc4)S3)S2)cc1		> 100 µM	> 100 µM
CCO[C@@H]1N(C2CC(N=[N+]=[N-])C(CO)O2)C(=O)NC(=O)[C@@]1(C)Cl (some centres not stated)		> 200 µM	> 200 µM
COc1cc(C2(C)SCCCS2)cc(OC)c1OC		> 182 µM	> 182 µM
COc1ccc(N=Nc2ccc3oc(=O)c(C(=O)Nc4ccc(Cl)cc4)cc3c2)cc1		> 200 µM	33.1 µM
CN1CC(=O)N(C)c2ncn(Cc3ccccc3)c2C1=O	inactive		
Cc1nn(-c2ccccc2)c2c1N=C(C(=O)O)CC(c1ccccc1)=N2		> 200 µM	91.2 µM
O=C1N(C2CCCCC2)CC2(Cc3ccccc3)c3ccccc3NC12O (configuration not stated)		> 20 µM	> 20 µM
C=C1C(=O)C[C@@]23CCC[C@@]12CC(OCOC)C3 (some centres not stated)	inactive		
CN(c1cn(C2CC[C@@H](CO)O2)c(=O)[nH]c1=O)C1CCCCC1 (some centres not stated)		> 200 µM	> 200 µM
Cc1cnc2cc(Cl)ccc2c1NCCN(CC(C)C)CC(C)C		> 1 µM	> 1 µM
C[C@]12CC[C@H](O)CC1=CC[C@@H]1C2CC[C@]2(C)Nc3c(cnn3-c3ccccc3)CC12 (some centres not stated)	inactive		
O=C1c2ccccc2CC12Cc1ccccc1C2		> 200 µM	69.2 µM
BrCC[N+]12CCCN1CCC2	inactive		
CCN(CC)CCCC(C)Nc1ccnc2cc(Cl)ccc12 (configuration not stated)	inactive		
OCC12COC(c3ccccc3)N1C(c1ccccc1)OC2 (configuration not stated)		> 200 µM	11.2 µM
CCC1C(=O)OCc2c1cc1n(c2=O)C(CC)c2c-1nc1ccccc1c2Cl (configuration not stated)		> 10 µM	4.68 µM
O=C1c2cc([N+](=O)[O-])ccc2-c2c(S)cccc21		> 200 µM	50.1 µM
O=C(C(=O)N1CCc2ccccc21)c1c[nH]c2ccccc12		> 200 µM	> 200 µM

Compound	outcome	EC50	IC50
Cc1nc2cc3c(cc2n2cccc12)oc1ccccc13		> 44.7 µM	35.5 µM
N#CCCN(CCC#N)CCN(CCN(CCC#N)CCC#N)CCN(CCC#N)CCC#N		> 200 µM	> 200 µM
COC(=O)/C(C#N)=C1\N=NNN1CCCN1CCOCC1	inactive		
CN1CCCc2cc(/C=C\c3ccnc4ccccc34)ccc21		0.0631 µM	4.37 µM
CN1OC2CCC1CC(OC(c1ccccc1)c1ccccc1)C2 (configuration not stated)		> 200 µM	> 200 µM
O=C(O)CCc1nc(-c2ccccc2)c(-c2ccccc2)o1		> 200 µM	> 200 µM
O=c1ccc2ccc(O)c3c4c(=O)ccc5ccc(O)c(c1c23)c54	inactive		
N#Cc1c(N2CCCC2)ncn(Cc2ccccc2)c1=O		> 200 µM	> 200 µM
CCC(=O)OC1=C(c2ccccc2)Sc2ccc(Cl)cc2-n2cccc21		> 200 µM	12 µM
CCCCN=C(OC1C=CCCC1)SC (configuration not stated)		> 200 µM	155 µM
Cc1ccc(C2SC(N)=Nc3c2c(C)nn3C(=O)c2ccccc2O)cc1 (configuration not stated)		> 20 µM	0.603 µM
CC(=O)N1CCN(C=S)CC1		> 1450 µM	> 1450 µM
CN(C)CC1CCCC/C1=N/OC(=O)c1ccc(Cl)cc1 (configuration not stated)	inactive		
CN(C)c1ccc(/C=C(\NC(=O)c2ccccc2)C(=O)Nc2ccccc2C(=O)NCc2ccccc2)cc1		> 151 µM	70.8 µM
NC(=O)CCS(=O)(=O)O		> 200 µM	> 200 µM
COC(=O)N1CC[C@]2(CC=C(C)C)c3ccccc3N(S(=O)(=O)c3ccccc3)[C@H]12		> 100 µM	24.5 µM
O=C(O)CC[C@H](NC(=O)c1ccc(-n2nc3ccc(O)cc3nc2=O)cc1)C(=O)O		> 145 µM	> 145 µM
Oc1ccc(O)c2c1N=NC21c2ccccc2Oc2ccccc21		> 112 µM	33.1 µM
C=C(C(=O)C(=O)Oc1ccc(Cl)cc1)C(=O)c1ccc(C)cc1		> 79.4 µM	> 79.4 µM
COc1ccc2c(c1OC)C(=O)OC2c1c2c(c(OC)c3c1OCO3)C(C1OC(=O)c3c1ccc(OC)c3OC)N(C)CC2 (configuration not stated)	inactive		
CCOC(=O)C1=NN(c2ccccc2)C(=O)/C1=C\N1C(=O)/C(=C/c2cccc(O)c2)SC1=S		> 200 µM	38.9 µM
ON(Cc1ccccc1)C(=S)c1ccccc1		> 5.37 µM	0.372 µM
c1ccc2c(c1)ncn2C1CCCCO1 (configuration not stated)		> 200 µM	> 200 µM

Compound	outcome	EC50	IC50
CC(=O)Nc1ccc(S(=O)(=O)n2oc(=O)c(-c3ccccc3)c2N)cc1		> 200 µM	105 µM
c1ccc(C2(c3ccccc3)SCCCS2)cc1		> 19.1 µM	> 19.1 µM
CCOP(=O)(OCC)OC(C#N)c1ccc(-c2ccccc2)cc1 (configuration not stated)		> 89.1 µM	45.7 µM
COC(=O)c1ccc(N/C=C(/C#N)c2ccsc2)cc1		> 47.9 µM	> 47.9 µM
CN/N=C/c1c2c(O)c3c(O)c(C)c4c(c3c1O)C(=O)C(C)(O/C=C/C(OC)C(C)C(OC(C)=O)C(C)C(O)C(C)C(O)C(C)/C=C/C=C(/C)C(=O)N2)O4 (configuration not stated)		> 200 µM	26.3 µM
CC(=O)Nc1ccc(-c2nnc(SCC(=O)Nc3ccccc3C)o2)cc1		> 67.6 µM	61.7 µM
Cc1ccc(/C=C/C(=O)c2sc(C(N)=S)nc2C)cc1		> 85.1 µM	> 85.1 µM
COC1=CC(=O)c2ccccc2C1(C)C1=NC(C)(C)CO1 (configuration not stated)		> 631 µM	> 631 µM
c1csc(-c2ccc(-c3ccsc3)s2)c1		> 200 µM	> 200 µM
N#CC(C(=O)/C(=N\NC(N)=O)C(C#N)c1ccc(Cl)cc1)c1ccc(Cl)cc1 (configuration not stated)		> 603 µM	398 µM
O=[P+](O)c1cccs1	inactive		
N#CCC(C#N)N1CCOCC1 (configuration not stated)		> 200 µM	> 200 µM
CN(C)CCOc1cccc(OCCN(C)C)n1		> 200 µM	> 200 µM
CCOC(=O)CC(C)OC1CCCCO1 (configuration not stated)	inactive		
CCOC(=O)[C@]12C(=C(c3ccccc3)O[C@H]3C=CCC[C@H]31)C(=O)C(=O)N2c1ccccc1		> 200 µM	75.9 µM
CN(/N=C\c1ccnc2ccccc12)c1ccccc1	inactive		
S=c1[nH]nc(Nc2ccc(Cl)cc2)s1		> 200 µM	79.4 µM
CCN(CC)C(=S)N/N=C/c1ccccn1		> 0.2 µM	0.00363 µM
Cc1cn(C2C=CC(COP(=O)(OCC(=O)C(C)(C)C)OCC(=O)C(C)(C)C)O2)c(=O)[nH]c1=O (configuration not stated)		1.29 µM	> 200 µM
Cc1ccc(-c2c(N)nc(NC#N)nc2CCC(=O)Nc2ccccc2[N+](=O)[O-])cc1	inactive		
CC(C)(C)C1CCC(C[Se]c2ccc(Cl)cc2)([N+](=O)[O-])CC1 (configuration not stated)	inactive		
OCC1OC(n2cnc3cncnc32)C(O)C1O (configuration not stated)	inactive		
CCOC(=O)C1CCN(C(=O)c2ccccc2)c2scc(-c3ccccc3)c2C1=O (configuration not stated)		> 100 µM	13.8 µM
